Laboratory results published in PubChem BioAssay (NCI).
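Exposure lasted 48 hours, with cells grown in 96-well plates and compounds tested at five concentrations. At the TGI there is no net growth.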

What was measured:
Assay in all cases: growth of human tumour cells (NCI), 48 h
UO-31 renal = tested on: UO-31 renal
CCRF-CEM leukemia = tested on: CCRF-CEM leukemia
786-0 renal = tested on: 786-0 renal
SK-MEL-28 melanoma = tested on: SK-MEL-28 melanoma
HS 578T breast = tested on: HS 578T breast
LOX IMVI melanoma = tested on: LOX IMVI melanoma
NCI-H226 lung = tested on: NCI-H226 lung
OVCAR-3 ovarian = tested on: OVCAR-3 ovarian
PC-3 prostate = tested on: PC-3 prostate
HL-60(TB) leukemia = tested on: HL-60(TB) leukemia
NCI/ADR-RES ovarian = tested on: NCI/ADR-RES ovarian
KM12 colon = tested on: KM12 colon
M14 melanoma = tested on: M14 melanoma
NCI-H23 lung = tested on: NCI-H23 lung
ACHN renal = tested on: ACHN renal
CAKI-1 renal = tested on: CAKI-1 renal
OVCAR-8 ovarian = tested on: OVCAR-8 ovarian
U251 CNS = tested on: U251 CNS
RPMI-8226 leukemia = tested on: RPMI-8226 leukemia
SK-OV-3 ovarian = tested on: SK-OV-3 ovarian

SMILES | TGI (UO-31 renal) [µM] | TGI (CCRF-CEM leukemia) [µM] | TGI (786-0 renal) [µM] | TGI (SK-MEL-28 melanoma) [µM] | TGI (HS 578T breast) [µM] | TGI (LOX IMVI melanoma) [µM] | TGI (NCI-H226 lung) [µM] | TGI (OVCAR-3 ovarian) [µM] | TGI (PC-3 prostate) [µM] | TGI (HL-60(TB) leukemia) [µM] | TGI (NCI/ADR-RES ovarian) [µM] | TGI (KM12 colon) [µM] | TGI (M14 melanoma) [µM] | TGI (NCI-H23 lung) [µM] | TGI (ACHN renal) [µM] | TGI (CAKI-1 renal) [µM] | TGI (OVCAR-8 ovarian) [µM] | TGI (U251 CNS) [µM] | TGI (RPMI-8226 leukemia) [µM] | TGI (SK-OV-3 ovarian) [µM]
C/C(Cl)=N/OC(=O)Nc1ccc(S(N)(=O)=O)c(C)c1 | 28.1 | 3.99 | 4.29 | 30.6 | > 79.4 | 6.19 | 47.6 | 8.9 | 32.3 | 3.05 | > 55.5 | 41.2 | 25.2 | 39.3 | 5.37 | 3.23 | > 56.2 | 33.7 | 6.49 | > 58.3
CCOC(=O)c1oc2cc3c(c4c2c1-c1ccccc1N4C)C=CC(C)(C)O3 | 65.5 | > 100 | > 53 | > 95.4 | 75.1 | > 100 | 48.9 | 45.3 | > 55.3 | > 100 | 27.6 | > 80.4 | > 100 | > 67.4 | 30.5 | 40.8 | 27.1 | 31 | > 64 | 69.4
CC(C)NC(NC(C)C)=C(S(=O)(=O)C(F)(F)C(F)(F)C(F)(F)C(F)(F)F)S(=O)(=O)C(F)(F)C(F)(F)C(F)(F)C(F)(F)F | > 100 | > 100 | > 100 | > 100 | > 100 | > 100 | > 100 | > 100 | > 100 | > 100 | > 100 | > 100 | > 100 | > 100 | > 100 | > 100 | > 100 | > 100 | > 100 | > 100
CCC/C=C/c1cc2c(cc1O)CC[C@@H]1[C@@H]2CC[C@]2(C)[C@@H](O)CC[C@@H]12 | 31 | 32.8 | 30.1 | 36.5 | 57.6 | 29.3 | 45.8 | 47 | 31 | 27.3 | 44.1 | 32.6 | 37.3 | 35.9 | 34.2 | 41.8 | 64.2 | 30.6 | 37.5 | 63.2
